Data published in US6017958A, “Method of treating malignant tumors with thyroxine analogues having no significant hormonal activity” (Octamer, Inc., priority 1997, dated 2000).
Entries after “also recorded” stand apart in the source; their conditions may differ.

Tests used:
[1] = 0.25 to 1.0 g/kg daily per os; cited from earlier work
E-ras 20 cells = experiment: cells; type: in vitro ADME, bovine; details: Bos taurus, 24 hours, read-out: Extracellular DIME (concentration that causes 100% growth inhibition)
Protocol: (§1) Monolayer cultures in 9.6 cm^2 wells (3 ml medium) were exposed to [^14 C]-DIME (10.55 mCi/mmol) for 24 hours, then washed 7 times with 1 ml medium containing unlabeled DIME. The cells were dissolved in 1 ml of 4% Na2 CO3 and 0.2 M NaOH and radioactivity measured by scintillation counting. Cell volume was determined by hematocrit and cell counting from parallel wells treated with unlabeled DIME.
(§2) A striking property of DIME is its apparent selectivity for tumors in vivo. We performed drug metabolism and cellular DIME uptake tests to further characterize this property. Incubation of cells in culture with [^14 DIME, under conditions described previously, Bauer et al., 1996, "Modification of growth related enzymatic pathways and apparent loss of tumorigenicity of a ras-transformed bovine endothelial cell line by treatment with 5-iodo-6-amino-1,2-benzopyrone (INH2 BP)" Intl. J. Oncol. […] As shown in Table 9 the tumorigenic transformed cells in general took up DIME more rapidly than nontransformed cells (CV-1) or cells that were less sensitive to killing-by DIME (e.g. E-ras 20). […] On the other hand homogenates of organs of normal mice actively metabolize (de-esterify) DIME as illustrated in Table 10.

DIME-esterase = experiment: Esterase cleavage of DIME in tissue homogenates; type: in vitro ADME; details: mouse tissue homogenates
Protocol: (a) mouse tissue homogenate (brain, kidney, liver lung) consisting of 0.2 g of tissue in 1.0 ml. of homogenization buffer (50 mM Tris (pH 7.4), 400 mM NaCl, 10 mM MgCl2, 1 mM EDTA, 0.5% NP-40, 0.5 mM PMSF) each were combined with 1.0 ml of MES buffer (100 mM ph 6.5) containing 20 μM [^14 C]-DIME (10.55 mCi/mmol), and the mixtures were incubated at 37° C. for 4 hours. Then to each tube was added sequentially ethyl acetate (1.5 ml), ammonium sulfate (900 mg) and 60% perchloric acid (160 μl), with vortexing after each addition. After standing for 10 minutes, phase separation was enhanced by benchtop centrifugation. The upper (ethyl acetate) layer was drawn off, and the lower aqueous and interphase material was extracted with a second portion of ethyl acetate (1.5 ml). The ethyl acetate extracts (combined) contained more than 90% of the total cpm present in the original incubate (ca. 4×10^5 cpm). The extracts were evaporated to dryness using a stream of N^2, the respective residues taken up in ethyl acetate (100 μl) and aliquots (10 μl) spotted on analytical silica-gel TLC plates (Whatman PE SIL G/UV flexible plates 250 μm thickness, 10 cm×20 cm) and developed with 3:1:0.8 v:v:v n-hexane/ethyl acetate/ethanol. Analyte bands, including [^14 C]-DIME as reference standard, were visualized by autoradiography. […]
radioactivity of the [^14 C]-DIME was 20,470 cpm/nmol.

MDA-MB-231 cells = experiment: cells; type: in vitro ADME; details: Homo sapiens; MDA-MB-231, 24 hours; read-out: Extracellular DIME (concentration that causes 100% growth inhibition)
Protocol: as §1, §2

CV-1 cells = experiment: cells; type: in vitro ADME; details: Cercopithecidae; CV-1, 24 hours; read-out: Extracellular DIME (concentration that causes 100% growth inhibition)
Protocol: as §1, §2

CV-1-Transformed cells = experiment: cells; type: in vitro ADME; details: 24 hours, read-out: Extracellular DIME (concentration that causes 100% growth inhibition)
Protocol: as §1, §2

E-ras cells = experiment: DNA cuts (TUNEL); type: cell-based, bovine; details: 2-10 μM, 18 hours
Protocol: E-ras cells (2×10^4 cells/cm^2) were treated with DIME 18 hours prior to the TUNEL assay.
Assay for DNA cuts, as a signal for apoptosis, was via the terminal deoxynucleotidyl transferase dUTP nick end labeling (TUNEL) reaction as specified by the manufacturer of the assay kit (Boehringer Mannheim, Indianapolis, Ind., USA, Cat. No. 168-4817).

In vivo toxicity = experiment: In vivo toxicity; set-up: species or system mouse
Protocol: Ten nude mice were administered a daily oral dose of ^14 C-labeled DIME (Compound 1) (1.0 g/kg, 0.1 mL in corn oil) for a period of 12-15 days.

A-549 cells = experiment: DIME action on A-549 cells with esterase inhibitor BNPP; type: cell-based, human; details: with bis[p-nitrophenyl] phosphate
MDA-MB-231 xenografts = details: cited from earlier work

For `COC(=O)c1cc(I)c(Oc2ccc(OC)cc2)c(I)c1` [Compound 1, Methyl 3,5-diiodo-4-(4'-methoxyphenoxy)benzoate], the noticeable toxicity [1] is listed as “no noticeable toxicity”, the IC100 (E-ras 20 cells) is listed as 10 µM and the “DIME-esterase activity” value (DIME-esterase) is listed as “highest rate of "DIME-esterase" activity occurred in brain homogenates”. It also gave an IC100 (MDA-MB-231 cells) of 2 µM, an IC100 (CV-1 cells) of 2 µM and an IC100 (CV-1-Transformed cells) of 2 µM. For the same molecule, the DNA breaks (E-ras cells) was “drug concentration-dependent DNA breaks”, the ill effects (In vivo toxicity; 1.0 g/kg daily oral, 12-15 days, nude mice, listed as DIME) was “No ill effects were observed; also recorded: produced no ill effects” and the “macroscopically observed toxicity in vivo” value (In vivo toxicity; in vivo) was “no macroscopically observed toxicity in vivo”. The “cell killing with esterase inhibition” value (A-549 cells) was “much more effective cell killing”, the “dose-response of antitumor effect” value (MDA-MB-231 xenografts; 0.25 g/kg and 1.0 g/kg) was “had the same antitumor effect” and the tumor regression (MDA-MB-231 xenografts; 25-35 days, 0.25 to 1.0 g/kg daily per os, nude mice (Kun et al., 1996)) was 70-85%.
